This is an account of results in US6921810B2, “Bifunctional antibiotics” (The Scripps Research Institute, priority 2000, dated 2005).

For series [1], the target named is AAC(6′)-Ii (Enterococcus faecium, UniProt Q47764). Briefly: Aminoglycoside-modifying enzyme kinetics, AAC(6′)-Ii. To be noted: in words. In kind it is biochemical. The procedure: (§1) They were in fact potent competitive inhibitors of the APH(2″) activity, Kis=0.8 μM for dimer 4, 0.1 μM for 6 and 0.7 μM for 27.
(§2) BF refers to the bifunctional enzyme AAC(6′)-APH(2″), where the particular activity is indicated. The neamine data were obtained from Daigle, D. M.; et al. Chem. Biol. 1999, 6, 99.

Series [2] has as its system E. coli 16S rRNA A-site (AS-wt). Briefly: Surface plasmon resonance binding to immobilized biotinylated A-site rRNA. To be noted: SPR; for Kd: AS-wt; for affinity for AS-wt relative to neamine: compared with neamine. How it is done:
The dissociation constant (Kd) and binding stoichiometry were determined using surface plasmon resonance (SPR) against an immobilized rRNA sequence modeling the A-site of prokaryotic rRNA (FIGS. 1-4) (Hendrix, M.; et al. J. Am. Chem. Soc. 1997, 119, 3641; Wong, C.-H.; et al. Chem. Biol. 1998, 5, 397). […] We focused on neamine as it represents the simplest effective aminoglycoside antibiotic and contains the key β-hydroxyamine motif for interaction with the phosphodiester group and the Hoogsteen face of guanine residues in RNA (FIG. 2) (Hendrix, M.; et al. Angew. Chem., Int. Ed. Engl. 1997, 36, 95). […] Various dimers of neamine were therefore constructed in order to identify a bivalent aminoglycoside that would bind AS-wt with high affinity (FIG. 4), and at the same time resist and/or inhibit the modifying enzymes due to its unnatural structure (Some aminoglycoside dimers were prepared previously; however, the monomers bind the A-site stoichiometrically: see Michael; K.; et al. Bioorg. Med. Chem. 1999, 7, 1361; for vancomycin dimers, see Rao, J.; Whitesides, G. H. J. Am. Chem. Soc. 1997, 119, 10286; Sundram, U. N.; et al. J. Am. Chem. Soc. 1996, 118, 13107).
Reactions were performed under inert atmosphere unless otherwise stated. THF and CH2Cl2 were distilled under Ar with benzophenone ketyl and CaH2, respectively. NMR spectra were obtained on a Bruker AMX-400. The sites of enzymatic modification of neomycin and gentamicin that cause drug resistance are shown in FIG. 1 (Daigle, D. M.; et al. Chem. Biol. 1999, 6, 99). Synthesis of biotinylated RNAs and surface plasmon resonance experiments were performed as previously described and Kd values were also calculated as previously described (FIG. 2) (Hendrix, M.; et al. J. Am. Chem. Soc. 1997, 119, 3641).
(SPR reads the build-up and loss of mass on a sensor chip optically.)

The target in series [3] is APH(2″) activity of AAC(6′)-APH(2″) (Staphylococcus aureus, UniProt P0A0C1). Briefly: Aminoglycoside-modifying enzyme kinetics, APH(2″) activity of the bifunctional enzyme. In kind it is biochemical. To be noted: for substrate for APH(2″) activity: in words. How it is done: as §1, §2
Chain of APH(2″) activity of AAC(6′)-APH(2″) (P0A0C1 whole entry): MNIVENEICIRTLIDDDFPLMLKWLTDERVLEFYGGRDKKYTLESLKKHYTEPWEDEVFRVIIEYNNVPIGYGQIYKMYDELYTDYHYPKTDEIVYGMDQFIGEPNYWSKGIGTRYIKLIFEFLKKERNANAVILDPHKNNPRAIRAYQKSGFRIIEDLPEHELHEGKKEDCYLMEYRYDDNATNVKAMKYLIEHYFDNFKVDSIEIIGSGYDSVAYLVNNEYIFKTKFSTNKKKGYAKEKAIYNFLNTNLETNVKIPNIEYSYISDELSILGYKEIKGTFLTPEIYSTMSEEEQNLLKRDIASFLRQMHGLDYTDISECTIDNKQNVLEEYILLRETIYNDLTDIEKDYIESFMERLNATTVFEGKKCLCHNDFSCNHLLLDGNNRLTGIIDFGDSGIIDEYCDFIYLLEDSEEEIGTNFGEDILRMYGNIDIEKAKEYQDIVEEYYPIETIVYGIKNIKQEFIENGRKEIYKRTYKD
Series [4] concerns the target APH(3′)-IIIa (Enterococcus faecalis, UniProt P0A3Y5). Briefly: Aminoglycoside-modifying enzyme kinetics, APH(3′)-IIIa. The format is biochemical. To be noted: in words. The procedure: as §1, §2
The target in series [5] is AAC(6′) activity of AAC(6′)-APH(2″) (Staphylococcus aureus, UniProt P0A0C1). Briefly: Aminoglycoside-modifying enzyme kinetics, AAC(6′) activity of the bifunctional enzyme. In kind it is biochemical. To be noted: in words. The procedure:
as §1, §2

For series [6], the system named is E. coli ATCC 25922. Briefly: Antimicrobial testing (MIC, NCCLS M7-A4). The settings on record: Escherichia coli, ATCC25922; E. coli reference strain. The format is cell-based. How it is done:
(§3) Antimicrobial Testing: The Kirby-Bauer Disk assay was performed as previously described (Hendrix, M.; et al. J. Am. Chem. Soc. 1997, 119, 3641; Phillips, I.; Williams, D. In Laboratory Methods in Antimicrobial Chemotherapy; Gerrod, L., Ed.; Churchill Livingstone Press: Edinburg, 1978; pp 3-30). Reference strains E. coli ATCC 25922 and S. aureus ATCC 25923 were obtained as lyophilized pellets (Difco). MIC testing was performed as recommended in the NCCLS Publication M7-A4.

Series [7] has as its system P. aeruginosa ATCC 27853. Briefly: Antibiotic activity against other strains. In kind it is cell-based. To be noted: in words. How it is done: as §3
For series [8], the system named is P. aeruginosa, PAO-1. Briefly: Antibiotic activity against other strains. In kind it is cell-based. The settings on record: in words. The procedure: as §3
Series [9] has as its system E. faecalis ATCC 29212. Briefly: Antibiotic activity against other strains. In kind it is cell-based. The settings on record: in words. The procedure: as §3
For series [10], the system named is S. aureus ATCC 33591-MRSA. Briefly: Antibiotic activity against other strains. The format is cell-based. The settings on record: in words. How it is done:
as §3

The test system of series [11] is S. aureus ATCC 29213. Briefly: Antibiotic activity against other strains. The format is cell-based. The settings on record: in words. How it is done: as §3
Series [12] has as its system tobramycin-resistant strain of P. aeruginosa from cystic fibrosis patients. Briefly: Antibiotic activity against a tobramycin-resistant strain. In kind it is cell-based. The settings on record: compared with tobramycin.
Series [13] has as its system NCC1OC(OC2C(N)CC(N)C(O)C2OCC(=O)NCCCNC(=O)COC2C(O)C(N)CC(N)C2OC2OC(CN)C(O)C(O)C2N)C(N)C(O)C1O. Briefly: Km as substrate for the AAC(6′) acetyltransferase activity of the bifunctional enzyme AAC(6′)-APH(2″) (BF). The format is biochemical. The settings on record: other: acetyltransferase activity of the bifunctional enzyme (BF). The procedure:
as §1, §2

The subject of series [14] is CN(CCCCN(C)CC(O)COC1C(O)C(N)CC(N)C1OC1OC(CN)C(O)C(O)C1N)CC(O)COC1C(O)C(N)CC(N)C1OC1OC(CN)C(O)C(O)C1N. The series is described as above. In kind it is biochemical. The settings on record: other: acetyltransferase activity of the bifunctional enzyme (BF). The procedure: as §1, §2
Series [15] deals with NCC1OC(OC2C(N)CC(N)C(O)C2OCC(=O)NCCCCCNC(=O)COC2C(O)C(N)CC(N)C2OC2OC(CN)C(O)C(O)C2N)C(N)C(O)C1O. Described as above. The format is biochemical. To be noted: other: acetyltransferase activity of the bifunctional enzyme (BF). The procedure: as §1, §2
Series [16] has as its system NCC1OC(OC2C(N)CC(N)C(O)C2OCC(=O)NCCCNC(=O)COC2C(O)C(N)CC(N)C2OC2OC(CN)C(O)C(O)C2N)C(N)C(O)C1O. Briefly: Km as substrate for AAC(6′)-Ii (6′-N-acetylation). The settings on record: other: 6′-N-acetylation. In kind it is biochemical. How it is done:
as §1, §2

In series [17] the test system is CN(CCCCN(C)CC(O)COC1C(O)C(N)CC(N)C1OC1OC(CN)C(O)C(O)C1N)CC(O)COC1C(O)C(N)CC(N)C1OC1OC(CN)C(O)C(O)C1N. Briefly: Km as substrate for AAC(6′)-Ii (6′-N-acetylation). In kind it is biochemical. To be noted: other: 6′-N-acetylation. How it is done:
as §1, §2

Series [18] relates to NCC1OC(OC2C(N)CC(N)C(O)C2OCC(=O)NCCCCCNC(=O)COC2C(O)C(N)CC(N)C2OC2OC(CN)C(O)C(O)C2N)C(N)C(O)C1O. Briefly: Km as substrate for AAC(6′)-Ii (6′-N-acetylation). In kind it is biochemical. To be noted: other: 6′-N-acetylation. How it is done: as §1, §2
Series [19] has as its system NCC1OC(OC2C(N)CC(N)C(O)C2OCC(=O)NCCCNC(=O)COC2C(O)C(N)CC(N)C2OC2OC(CN)C(O)C(O)C2N)C(N)C(O)C1O. Briefly: Km as substrate for APH(3′)-IIIa (3′-O-phosphorylation). The format is biochemical. To be noted: other: 3′-O-phosphorylation. The procedure:
as §1, §2

The subject of series [20] is CN(CCCCN(C)CC(O)COC1C(O)C(N)CC(N)C1OC1OC(CN)C(O)C(O)C1N)CC(O)COC1C(O)C(N)CC(N)C1OC1OC(CN)C(O)C(O)C1N. The series is described as above. The format is biochemical. The settings on record: other: 3′-O-phosphorylation. The procedure: as §1, §2
Series [21] deals with NCC1OC(OC2C(N)CC(N)C(O)C2OCC(=O)NCCCCCNC(=O)COC2C(O)C(N)CC(N)C2OC2OC(CN)C(O)C(O)C2N)C(N)C(O)C1O. The series is described as above. The format is biochemical. To be noted: other: 3′-O-phosphorylation. How it is done: as §1, §2

Converted amounts (≈) assume the structure as drawn.

In general, Kd refers to the free concentration of one partner at which half of the binding sites on the other are occupied at equilibrium, for simple one-to-one binding. As usually defined, the Ki is the dissociation constant of the complex between target and ligand, obtained from inhibition or displacement. High values mean weaker binding, low ones tighter binding. In general, MIC refers to the smallest concentration in the dilution series that meets the test's criterion for growth inhibition. Higher therefore signals a need for much substance. Broadly, the Km is the substrate concentration at which the rate is half of its maximum.

Chain of AAC(6′) activity of AAC(6′)-APH(2″) (P0A0C1 whole entry): as above
Chain of AAC(6′)-Ii (Q47764 entry or part of it): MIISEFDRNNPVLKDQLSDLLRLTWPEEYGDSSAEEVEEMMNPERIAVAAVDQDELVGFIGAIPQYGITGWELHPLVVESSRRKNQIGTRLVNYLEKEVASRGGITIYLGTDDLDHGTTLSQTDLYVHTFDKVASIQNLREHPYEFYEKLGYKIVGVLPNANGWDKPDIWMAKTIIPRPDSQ
Chain of APH(3′)-IIIa (P0A3Y5 whole entry): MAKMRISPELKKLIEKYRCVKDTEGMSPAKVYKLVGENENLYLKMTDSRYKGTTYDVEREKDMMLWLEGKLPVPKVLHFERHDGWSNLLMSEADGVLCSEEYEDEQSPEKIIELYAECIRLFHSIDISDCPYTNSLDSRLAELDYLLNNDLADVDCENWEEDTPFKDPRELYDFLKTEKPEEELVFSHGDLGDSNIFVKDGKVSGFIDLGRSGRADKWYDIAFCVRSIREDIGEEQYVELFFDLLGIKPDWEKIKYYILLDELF

In the case of `NCC1OC(OC2C(N)CC(N)C(O)C2OCC(=O)NCCCNC(=O)COC2C(O)C(N)CC(N)C2OC2OC(CN)C(O)C(O)C2N)C(N)C(O)C1O` (stereo not drawn) [Dimer 4, N,N′-1,3-bis(5-Ethylcarboxyl-neamine)propylamide], the “substrate for AAC(6′)-Ii” value in series [1] is listed as “poor substrates”. Binding in [2] (for neamine per binding site) was put at a Kd of 1.1 µM. For the same molecule, in series [2], the “affinity for AS-wt relative to neamine” value is “ten-fold greater than neamine”. Besides, in series [3], the affinity, expressed as Ki, was 0.8 µM and the “substrate for APH(2″) activity” value was “not substrates”. In addition, the “substrate for APH(3′)-IIIa” value in [4] is “poor substrates”. The “substrate for AAC(6′) activity of bifunctional enzyme” value (“substrate for AAC(6′) activity” below) in series [5] is listed as “poor substrates”. Besides, in [6], the MIC turned out to be 31 µM (≈ 24.8 µg/mL).

As for `NCC1OC(OC2C(N)CC(N)C(O)C2OCC(=O)NCCCCCNC(=O)COC2C(O)C(N)CC(N)C2OC2OC(CN)C(O)C(O)C2N)C(N)C(O)C1O` (stereo not drawn) [Dimer 6, N,N′-1,3-bis(5-Ethylcarboxyl-neamine)pentylamide], in series [1], the “substrate for AAC(6′)-Ii” value is recorded as “poor substrates”. The molecule further showed a Kd in [2] (for neamine per binding site) of 0.8 µM. Moreover, the “affinity for AS-wt relative to neamine” value in series [2] was “ten-fold greater than neamine”. For the same molecule, in [3], the Ki stood at 0.1 µM and the “substrate for APH(2″) activity” value is on record as “not substrates”. For the same molecule, the “substrate for APH(3′)-IIIa” value in series [4] was “poor substrates”. Further, the “substrate for AAC(6′) activity” value in series [5] is “poor substrates”. In series [6], this molecule gave an MIC of 125 µM (≈ 103 µg/mL).

As for `CN(CCCCN(C)CC(O)COC1C(O)C(N)CC(N)C1OC1OC(CN)C(O)C(O)C1N)CC(O)COC1C(O)C(N)CC(N)C1OC1OC(CN)C(O)C(O)C1N` (stereo not drawn) [Dimer 27], the “substrate for AAC(6′)-Ii” value in series [1] is given as “poor substrates”. Binding in series [2] was characterised by a dissociation constant (Kd) of 0.04 µM. Further, the antibiotic activity result in series [7], in series [8], in series [9], in series [10] and in [11] was “effective” each time. In addition, the Ki in [3] turned out to be 0.7 µM. The “substrate for APH(2″) activity” value in [3] was “not substrates”. The “substrate for APH(3′)-IIIa” value in series [4] is “poor substrates”. The “substrate for AAC(6′) activity” value in series [5] is given as “poor substrates”. Moreover, the “effectiveness relative to tobramycin” value in [12] is listed as 3 times. This molecule showed an MIC in series [6] of 6.25 µM (≈ 5.46 µg/mL).

`NC[C@H]1O[C@H](O[C@H]2[C@H](O)[C@@H](O)[C@H](N)C[C@@H]2N)[C@H](N)[C@@H](O)[C@@H]1O` [neamine, reference compound]: the equilibrium dissociation constant (Kd) in series [2] (for neamine per binding site) came to 10 µM.

As for “AAC(6′) activity of the bifunctional aminoglycoside modifying-enzyme AAC(6′)-APH(2″) (Staphylococcus aureus)”, the Km was 0.84 µM in [13], 0.53 µM in [14] and 4.22 µM in series [15].

Regarding AAC(6′)-Ii (Enterococcus faecium), the Km in series [16] was 53.4 µM; in series [17], 28.7 µM; in series [18] it was 83.6 µM.

Consider APH(3′)-IIIa (Enterococcus faecalis), for which the figures for the Km in series [19], in series [20] and in [21] were 0.82 µM, 1.1 µM and 2.66 µM, respectively.
